In patent US8148423B2, “Fluorophore compounds” (Versitech Limited, priority 2008, dated 2012):

Key:
[1] = Fluorescence spectra and quantum yield of rhodol fluorophores, rhodamine 6G as reference; format: physicochemical; settings: 50 mM aqueous phosphate buffer at pH about 8.0, N.D. = no fluorescence detected; for QY (quantum yield): relative to rhodamine 6G (QY = 0.76 in water)
Method: (§1) The photophysical properties of the rhodol fluorophores in Table 1 were measured according to the procedures disclosed herein and are summarized in Table 1. Stock solutions were prepared by accurately weighting and dissolving about 5-10 mg of the rhodol fluorophores in Table 1 in acetonitrile (CH3CN). Absorbance solutions were prepared by further diluting the stock solution with 50 mM of potassium phosphate buffer at pH 8.0. Absorption spectra were recorded on a CARY 50 Bio UV-Visible spectrophotometer (obtainable from Varian Incorporation, Palo Alto, Calif.) under the control of a PC running the manufacturer supplied software package. Spectra were routinely acquired at 25° C., in 1 cm path length quartz cuvettes with a volume of 3.5 mL. Fluorescence spectra were recorded on a Hitachi F-2500 spectrofluorimeter (obtainable from Hitachi, Japan) under the control of a PC running the manufacturer supplied software package. Slit width was 2.5 nm for both the excitation spectrum and the fluorescence spectrum, and the photomultiplier voltage was […]. All spectra were corrected for emission intensity using the manufacturer-supplied photomultiplier curves. The quantum yields of the fluorophores may be estimated by comparison of the integrated area of the corrected emission spectrum of the sample with that of a reference solution, such as a solution of rhodamine 6 G in water (quantum efficiency 0.76). The concentration of the reference was adjusted to match the absorbance of the test sample.

[2] = Absorption spectra of rhodol fluorophores in phosphate buffer; format: physicochemical; settings: for εmax: 50 mM aqueous phosphate buffer at pH about 8.0; for Abs Max: 50 mM aqueous phosphate buffer at pH about 8.0, 25° C.
Method: as §1

Row | Em Max [1] | QY (quantum yield) [1] | εmax [2] | Abs Max [2] | Compound
1 | 549 nm | 0.08 | 47,000 cm^−1M^−1 | 522 nm | CCN(CC)c1ccc2c(c1)Oc1cc(O)ccc1C21OC(=O)c2ccccc21 (centres unmarked) [A=H, R1=Et, R2=Et]
2 | 529 nm | 0.95 | 71,000 cm^−1M^−1 | 503 nm | O=C1OC2(c3ccc(O)cc3Oc3cc(NCc4ccccc4)ccc32)c2ccccc21 (centres unmarked) [A=H, R1=H, R2=Bn]
3 | 524 nm | 0.19 | – | 462/490 | C=CC(=O)Nc1ccc2c(c1)Oc1cc(O)ccc1C21OC(=O)c2ccccc21 (centres unmarked) [A=H, R1=H, R2=COCHCH2]
4 | 525 nm | 0.16 | – | 462/490 | O=C(Nc1ccc2c(c1)Oc1cc(O)ccc1C21OC(=O)c2ccccc21)c1ccccc1 (centres unmarked) [A=H, R1=H, R2=COPh]
5 | 516 nm | 0.98 | ~70,000 cm^−1M^−1 | 493 nm | Nc1ccc2c(c1)Oc1cc(O)ccc1C21OC(=O)c2ccccc21 (centres unmarked) [A=H, R1=H, R2=H]
6 | – | – | 55,000 cm^−1M^−1 | 513 nm | O=C1OC2(c3ccc(O)cc3Oc3cc(Nc4ccccc4)ccc32)c2ccccc21 (centres unmarked) [A=H, R1=H, R2=Ph]
7 | 533 nm | 0.90 | 60,000 cm^−1M^−1 | 508 nm | CCCCNc1ccc2c(c1)Oc1cc(O)ccc1C21OC(=O)c2ccccc21 (centres unmarked) [A=H, R1=H, R2=n-Bu]
8 | 531 nm | 0.94 | 61,000 cm^−1M^−1 | 507 nm | CCCNc1ccc2c(c1)Oc1cc(O)ccc1C21OC(=O)c2ccccc21 (centres unmarked) [A=H, R1=H, R2=n-Pr]
9 | 544 nm | 0.20 | 64,000 cm^−1M^−1 | 518 nm | CN(C)c1ccc2c(c1)Oc1cc(O)ccc1C21OC(=O)c2ccccc21 (centres unmarked) [A=H, R1=Me, R2=Me]
10 | 553 nm | 0.12 | 63,000 cm^−1M^−1 | 525 nm | CCCCN(CCCC)c1ccc2c(c1)Oc1cc(O)ccc1C21OC(=O)c2ccccc21 (centres unmarked) [A=H, R1=n-Bu, R2=n-Bu]
11 | 555 nm | 0.03 | 62,500 cm^−1M^−1 | 523 nm | O=C1OC2(c3ccc(O)cc3Oc3cc(N4CCCCC4)ccc32)c2ccccc21 (centres unmarked) [A=H, R1R2=CH2CH2CH2CH2CH2]
12 | – | – | – | 293 nm | COCOc1ccc2c(c1)Oc1cc(NC(=O)c3ccccc3)ccc1C21OC(=O)c2ccccc21 (centres unmarked) [A=MOM, R1=H, R2=COPh]
13 | 532 nm | 0.35 | – | 494 nm | CCCNc1ccc2c(c1)Oc1cc(OCOC)ccc1C21OC(=O)c2ccccc21 (centres unmarked) [A=MOM, R1=H, R2=n-Pr]
14 | 516 nm | 0.85 | – | 477 nm | COc1ccc2c(c1)Oc1cc(N)ccc1C21OC(=O)c2ccccc21 (centres unmarked) [A=Me, R1=H, R2=H]
